From patent US20240295545A1, “GLIOMA THERAPY” (Imperial College Innovations Limited, priority 2021, published 2024)
Entries after “also recorded” stand apart in the source; their conditions may differ.

Key:
[1] = target: T1, mitochondrial F1Fo ATP Synthase c-subunit leak channel (Sus scrofa, UniProt A1XQS5); test: ACMA assay (H+ leak in submitochondrial vesicles); type: biochemical, pig; conditions: negative control; swine brain SMVs
T1 construct: isolated swine brain submitochondrial vesicles (SMVs), which are enriched for the F1Fo ATP synthase; from tissue; host or cells: pig (swine) brain, submitochondrial vesicles
T1 sequence (A1XQS5 62-136): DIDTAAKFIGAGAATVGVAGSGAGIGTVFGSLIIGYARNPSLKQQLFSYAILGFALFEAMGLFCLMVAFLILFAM
Experimental: ACMA assay buffer (concentrations used throughout the assay):
ACMA solution: • Stock solution of 1 mg/ml (3.87 mM) ACMA in 100% ethanol • Diluted to working solution (3 μM) in assay buffer • Aliquots of 10 μL to be added to wells
• 1. Sub-mitochondrial vesicles (SMVs) isolated from pig brains were thawed and prepared to 0.17 μg/μL in ACMA assay buffer. • 2. Drug solutions were added to 386-well plates at a final concentration of 10 μM. • 3. Sub-mitochondrial vesicles (SMVs), isolated from pig brains, were thawed and prepared to 0.17 μg/μL in ACMA assay buffer. 30 μL of this solution (containing 5 μg of polypeptide, as measured via the QuickStart Bradford Protein Assay (Bio-Rad, UK)) was added to each well. • 4. Stock solution of 1 mg/ml (3.87 mM) ACMA (9-amino-6-chloro-2-methoxyacridine) were diluted to working solution 3 μM in assay buffer. Aliquots of 10 μL were added to each well (final concentration of 0.75 μM). • 5. The samples were mixed and incubated at room temperature for 20 mins. • 6. The ACMA fluorescence was measured at 1 min intervals using a Tecan Infinite M200 plate reader—excitation 412 nm, emission 480 nm. • 7. […] Fluorescence was measured quickly after addition of ATP for another 7 mins (1 min intervals). […]

Grade IV (GBM) cells = test: Proliferation of primary tumour cells incubated with mitochondrial toxins, GBM; type: cell-based, human; conditions: rotenone 100 nM, oligomycin 50 nM, UK5099 10 μM; hypoxia and normoxia; FIG. 1B
Description: (§1) The cell lines employed were low-passage lines, derived from tumour tissue. The cells were obtained from tumour tissue of a highly proliferative glioma (which was a grade IV/glioblastoma multiforme glioma). For comparison, cells were also obtained from a tumour tissue of a comparatively slow-growing glioma (which was a grade III glioma).
(§2) The inventors compared the metabolic and mitochondrial energetic profile of slow-growing glioma/astrocytoma cells (chosen in particular due to their relatively slow growth rate) to that in cells of a highly proliferative glioma primary tumour cells by performing ‘hypoxia’ experiments with primary tumour cells, in which primary tumour cells were deprived of adequate oxygen supply and compared with control cells not so deprived (‘normoxia’). […] The slow growing cells were selected from a grade III glioma, and the highly proliferative cells were chosen from a grade IV glioma i.e. glioblastoma multiforme cells.
(§3) To further investigate this, primary tumour cells were incubated (both under hypoxia and normoxia) with the toxins rotenone (100 nM), oligomycin (50 nM), a combination of rotenone and oligomycin (100 nM and 50 nM, respectively) or UK5099 (10 μM).

[2] = test system: grade III astrocytoma cells; test: Proliferation of primary tumour cells incubated with mitochondrial toxins, grade III; type: cell-based, human; conditions: rotenone 100 nM, oligomycin 50 nM, UK5099 10 μM; hypoxia and normoxia; FIG. 1B
Description: as §1, §2, §3

GBM1 cells = test: Glioma suppression assay (SRB proliferation); type: cell-based, human; conditions: in vitro; FIG. 4D
Experimental: • 1. Without removing the cell culture medium, gently add 50% cold TCA to each well (the final concentration of TCA should be 10%), and incubate the plates at 4° C. for 1 h. For 150 μL medium volume in each well, add 30 μL of 50% TCA. • 2. Wash the plates 4 times with slow-running tap water. Then allow the plates to air-dry at RT. After fixing and drying, the plates can be stored indefinitely at RT. • 3. Add 0.4% SRB solution to each well (e.g. 80 μL/well). Leave at room temperature for 1 h (no shaking) and then quickly rinse the plates 4 times with 1% acetic acid to remove unbound dye. Then allow the plates to dry at RT. Stained and dried plates can be stored indefinitely at RT. • 4. Add 10 mM Tris base solution to each well (e.g. 80 μL/well) and shake the plate for 5 min to solubilize the protein-bound dye. Alternatively, if a shaker is not available, SRB can be solubilized after 30 min in 10 mM Tris base solution. • 5. Measure the OD at […] in a microplate reader. The suboptimal wavelengths should be 490-530 nm.
1000 Grade IV cells (cell line 1 in FIG. 2) were plated in cell culture medium (10% FBS in DMEM) per each well in 96-well plates. On day 1, the cells were treated with 10 μM of the indicated drugs and incubated at 37° C. for 5 days. SRB assay was performed prior to addition of the drugs and after 5 days. The values were normalized against those of the control (untreated cultures). […]

| SMILES | ATP response in ACMA assay [1] | effect on proliferation of GBM cells (Grade IV (GBM) cells) | effect on proliferation of grade III astrocytoma cells [2] | effect on proliferation of GBM1 cell line (highest rate of proliferation) (GBM1 cells) |
| --- | --- | --- | --- | --- |
| N#CC(C#N)=NNc1ccc(OC(F)(F)F)cc1 [FCCP, carbonylcyanide p-trifluoromethoxyphenylhydrazone] | attenuated | – | – | – |
| N#C/C(=C\c1cn(-c2ccccc2)c2ccccc12)C(=O)O [UK5099] | – | decreases the proliferation; also recorded: impeded the proliferation | without a significant effect | – |
| Cn1nnc2c(C(N)=O)ncn2c1=O [TMZ, temozolomide] | – | – | – | no effect |
| C=C(C)[C@H]1Cc2c(ccc3c2O[C@@H]2COc4cc(OC)c(OC)cc4[C@@H]2C3=O)O1 [rotenone] | – | decreases the proliferation; also recorded: impeded the proliferation | without a significant effect | – |
| CC[C@H]1/C=C/C=C/C[C@@H](C)[C@H](O)[C@@](C)(O)C(=O)[C@@H](C)[C@H](O)[C@@H](C)C(=O)[C@@H](C)[C@H](O)[C@@H](C)/C=C/C(=O)O[C@@H]2[C@H](C)[C@H](CC1)O[C@]1(CC[C@H](C)[C@H](C[C@@H](C)O)O1)[C@H]2C [oligomycin] | attenuated | decreases the proliferation; also recorded: impeded the proliferation | without a significant effect | – |
